# Measured values reported in publication PMC11665553, “12-Lipoxygenase inhibition delays onset of autoimmune diabetes in human gene replacement mice” (JCI Insight, 2024).
# Values joined by “and” are separate entries in the source; they are usually repeats but may differ in a detail not shown here. Identical values can stand only once. “Also recorded” adds a separate entry of the source.
# Experiments:
# B6.hALOX12 mice = assay: Multiple low-dose STZ-induced diabetes in B6.hALOX12 mice (random-fed blood glucose, GTT, β cell mass); conditions: for Blood glucose (Fig 1H) / GTT blood glucose (Fig 1I): individual animals; for Random-fed blood glucose (Fig 1E) / GTT blood glucose (Fig 1F): hAlox12 mice, listed as ML355, 30 mg/kg; for Random-fed blood glucose (Fig 1E): 30 mg/kg i.p. + STZ
# Procedure: Intraperitoneal GTTs (IPGTTs) were performed in mice after overnight fasting (16 hours). Mice were i.p. injected with glucose at a dose of 1 or 2 g/kg body weight and blood glucose levels were measured at specific time points: 0, 10, 20, 30, 60, 90, and 120 minutes after glucose injection using an AlphaTrak glucometer.
# Random-fed glucose levels were measured by tail snip using a glucometer (AlphaTrak), and mice were followed for 20 days after STZ injections. IPGTT was performed on day 4 after STZ treatments after overnight fasting.
# NOD.hALOX12 mice [1] = assay: Oxidative stress immunostaining (4-HNE, GPx1) in NOD.hALOX12 mice; format: in vivo, mouse
# Excerpt: (§1) We, therefore, immunostained pancreatic sections for markers of cell death and proliferation in the islet.
# (§2) For immunofluorescent staining, pancreatic sections were stained with the following antibodies: anti-insulin (Dako, IR002; 1:4), anti-glucagon (Santa Cruz Biotechnology, sc514592; 1:50), anti-B220 (BioLegend, 03201; 1:100), anti-CD3 (Abcam, ab16669; 1:200), anti-PCNA (Santa Cruz Biotechnology, sc-7907; 1:100), anti–4-HNE (Abcam, ab46545; 1:200), and anti-GPx1 (Santa Cruz Biotechnology, sc-22145; 1:100). Highly cross-adsorbed Alexa Fluor secondary antibodies (Thermo Fisher Scientific) were used at a dilution of 1:500. Tissue sections were stained with DAPI (Thermo Fisher Scientific) to label cell nuclei. The Nikon A1 confocal microscopy was used to capture images. CellProfiler v4.1 software (https://cellprofiler.org/) was used for image analysis.
# [2] = Pharmacokinetics after single p.o. dose in NOD.ShiLt/J mice (plasma LC-MS/MS); format: in vivo, mouse; conditions: 30 mg/kg p.o., mean ± SD
# Excerpt: The NOD mouse model is a model of T1D that recapitulates many of the immune and β cell features of the disease ([20]). […] To address this question, we introgressed humanized hALOX12 mice onto the NOD background using a speed congenics approach. […] We next measured human 12-LOX protein levels in the NOD.hALOX12 mice.
# human islets = tested on: human islets; design: method as in PMID 28609824; conditions: cited from earlier work
# NOD.hALOX12 mice [3] = assay: NanoString spatial proteomics of insulitic and insulin-positive areas in NOD.hALOX12 mice; format: in vivo, mouse; conditions: Insulitic Area; Fig 2F source data, individual values
# NOD.hALOX12 mice [4] = assay: Flow cytometry of pancreatic lymph nodes and spleen of NOD.hALOX12 mice; format: in vivo, mouse; design: FoxP3 / CD4 / IFNg / IL-17a: unit not given here; conditions: for CD4 / FoxP3 / IFNg / IL-17a: flow cytometry, individual animals, listed as VLX
# Procedure: Spleen and pLNs were harvested, homogenized, and passed through a 70 μm strainer to obtain a single-cell suspension. Cell pellets were resuspended in red blood cell (RBC) lysing solution to remove red blood cells. […] The following surface markers were used — CD4-FITC (BioLegend, 100510; 1:100), CD8–PerCP-Cy5.5 (BioLegend, 100734; 1:100), and CD19-AF700 (BioLegend, 152414; 1:100). Following incubation of surface antibodies, cells were washed with stain buffer and then permeabilized using fix/perm buffer (BD Biosciences, 554722) before intracellular staining. The following intracellular antibodies from BD Biosciences were used: FoxP3-AF647 (560401; 1:100), IFN-γ–PE (554412; 1:50), and IL-17a–APCCY7 (560821; 1:50). Cells were analyzed on the Attune NxT Flow Cytometer (Thermo Fisher Scientific). Data were analyzed by FlowJo software (BD Biosciences).
# NOD.hALOX12 mice [5] = assay: Islet cell death and proliferation staining (TUNEL, H2A.X, PCNA) in NOD.hALOX12 mice
# Excerpt: as §1
# Pancreatic tissues were fixed using 4% paraformaldehyde. After fixation, the tissues were embedded in paraffin and sectioned with a thickness of 5 μm. Three sections per mouse were used for analysis, with each section being spaced 100 μm apart. Tissue sections were immunostained with anti-insulin (ProteinTech, 15848-1-AP; 1:200), anti-glucagon (Abcam, ab92517; 1:200), anti–12-LOX (Thermo Fisher Scientific, PA5-26020; 1:200), anti–12/15-LOX (Abcam, ab80221; 1:200), anti-CD3 (Abcam, ab16669; 1:200), anti-F4/80 (Sigma-Aldrich, D2S9R; 1:150), anti-MAC2 (Thermo Fisher Scientific, EbioM3/38; 1:200), and anti-H2A.X (Cell Signaling Technology, 9718s; 1:200) primary antibodies followed by conjugated anti-rabbit Ig (Vector Laboratories) secondary antibody. A DAB (3,3′-diaminobenzedine) Peroxidase Substrate Kit from Vector Laboratories was used for detection. After immunostaining, the tissue sections were counterstained with hematoxylin (Sigma-Aldrich). Images were acquired using a BZ-X810 fluorescence microscope (Keyence) and β/α cell mass was quantified by insulin^+ or glucagon^+ area and whole pancreas area.
# as §2
# A TUNEL assay was used to determine β cell death in pancreatic islets. The assay was performed according to the protocol provided by the manufacturer (Abcam) and HRP-DAB chemistry was used for detection. Two sections, spaced 100 μm apart, were used for each mouse. Images were captured using a BZ-X810 fluorescence microscope system (Keyence). The number of TUNEL^+ cells was assessed manually per islet.
# [6] = B6.hALOX12 mice, 30 mg/kg p.o., STZ
# [7] = female NOD.hALOX12 mice, 4 weeks of treatment
# [8] = sheet Fig 4E, individual mice, listed as VLX
# [9] = female NOD.hALOX12 mice, 30 mg/kg p.o., 4 weeks
# [10] = sheet Fig 4D, individual mice, listed as VLX
smiles,measurement,setting,value
COc1cccc(CNc2ccc(S(=O)(=O)Nc3nc4ccccc4s3)cc2)c1O [VLX-1005],Glucose tolerance vs vehicle,B6.hALOX12 mice; [6],significantly improved glucose tolerance
same,Random-fed blood glucose levels vs vehicle,B6.hALOX12 mice; [6],lower random-fed blood glucose levels
same,β cell mass at end of study vs vehicle,B6.hALOX12 mice; [6],greater β cell mass
same,GTT AUC (Fig 1J),"B6.hALOX12 mice; B6.hALOX12 mice, 30 mg/kg p.o., day 4 after STZ, individual mice, 30 mg/kg",38575 and 27605 and 37915 and 32740 and 28655 and 39615
same,β cell mass (Fig 1K),"B6.hALOX12 mice; B6.hALOX12 mice, 30 mg/kg p.o., day 26 after STZ, individual mice, listed as VLX, 30 mg/kg",0.4287 and 0.8456 and 0.5623 and 0.6492 and 1.024
same,Glucose tolerance (GTT),"B6.hALOX12 mice; B6.hALOX12 vs WT C57BL/6J mice, both 30 mg/kg i.p., after STZ",improved glucose tolerance
same,Blood glucose (Fig 1H),B6.hALOX12 mice; day 1,293 and 265 and 377 and 281 and 389 and 367
same,Blood glucose (Fig 1H),B6.hALOX12 mice; day 4,209 and 312 and 289 and 205 and 311 and 272
same,Blood glucose (Fig 1H),B6.hALOX12 mice; day 8,346 and 273 and 297 and 307 and 219 and 303
same,Blood glucose (Fig 1H),B6.hALOX12 mice; day 11,435 and 460 and 385 and 378 and 441 and 298
same,Blood glucose (Fig 1H),B6.hALOX12 mice; day 16,427 and 543 and 470 and 301 and 405 and 380
same,Blood glucose (Fig 1H),B6.hALOX12 mice; day 18,571 and 573 and 426 and 374 and 417 and 346
same,Blood glucose (Fig 1H),B6.hALOX12 mice; day 23,474 and 543 and 550 and 331 and 533 and 356
same,Blood glucose (Fig 1H),B6.hALOX12 mice; day 25,630 and 501 and 416 and 359 and 457 and 307
same,Blood glucose (Fig 1H),B6.hALOX12 mice; day 28,426 and 551 and 530 and 363 and 483 and 470
same,Blood glucose (Fig 1H),B6.hALOX12 mice; day -3,296 and 262 and 381 and 299 and 367 and 314
same,GTT AUC (Fig 1G),"B6.hALOX12 mice; hALOX12 mice, 30 mg/kg i.p., day 4 after STZ, individual mice, 30 mg/kg",24945 and 29635 and 27915 and 36735
same,Random-fed blood glucose (Fig 1E),"B6.hALOX12 mice; day 0, individual mice",184 and 194 and 153 and 159
same,Random-fed blood glucose (Fig 1E),"B6.hALOX12 mice; day 5, individual mice",174 and 179 and 181 and 131
same,Random-fed blood glucose (Fig 1E),"B6.hALOX12 mice; day 10, individual mice",195 and 201 and 210 and 180
same,Random-fed blood glucose (Fig 1E),"B6.hALOX12 mice; day 15, individual mice",167 (2×) and 210 and 214
same,Random-fed blood glucose (Fig 1E),"B6.hALOX12 mice; day 22, individual mice",193 and 223 and 208 and 188
same,Random-fed blood glucose (Fig 1E),"B6.hALOX12 mice; day 27, individual mice",216 and 217 and 226 and 193
same,Random-fed blood glucose (Fig 1E),"B6.hALOX12 mice; day -5, individual mice",194 and 201 and 167 and 185
same,GTT blood glucose (Fig 1F),"B6.hALOX12 mice; 30 mg/kg i.p., day 4 after STZ, 0 min after glucose, individual mice",184 and 132 and 122 and 134
same,GTT blood glucose (Fig 1F),"B6.hALOX12 mice; 30 mg/kg i.p., day 4 after STZ, 10 min after glucose, individual mice",401 and 364 and 354 and 369
same,GTT blood glucose (Fig 1F),"B6.hALOX12 mice; 30 mg/kg i.p., day 4 after STZ, 20 min after glucose, individual mice",610 and 557 and 487 and 467
same,GTT blood glucose (Fig 1F),"B6.hALOX12 mice; 30 mg/kg i.p., day 4 after STZ, 30 min after glucose, individual mice",512 and 597 and 398 and 458
same,GTT blood glucose (Fig 1F),"B6.hALOX12 mice; 30 mg/kg i.p., day 4 after STZ, 60 min after glucose, individual mice",361 and 446 and 310 and 375
same,GTT blood glucose (Fig 1F),"B6.hALOX12 mice; 30 mg/kg i.p., day 4 after STZ, 90 min after glucose, individual mice",221 and 387 and 284 and 306
same,GTT blood glucose (Fig 1F),"B6.hALOX12 mice; 30 mg/kg i.p., day 4 after STZ, 120 min after glucose, individual mice",159 and 209 and 223 and 281
same,Protection from STZ-induced diabetes,"B6.hALOX12 mice; male B6.hALOX12 mice, 30 mg/kg i.p. daily peri-STZ",complete protection from STZ-induced diabetes
same,GTT blood glucose (Fig 1I),B6.hALOX12 mice; time 0,403 and 326 and 234 and 245 and 279 and 370
same,GTT blood glucose (Fig 1I),B6.hALOX12 mice; time 10,585 and 462 (2×) and 543 and 359 and 482
same,GTT blood glucose (Fig 1I),B6.hALOX12 mice; time 20,636 and 668 and 606 and 558 and 520 and 577
same,GTT blood glucose (Fig 1I),B6.hALOX12 mice; time 30,577 and 520 and 660 and 662 and 560 and 646
same,GTT blood glucose (Fig 1I),B6.hALOX12 mice; time 60,488 and 436 and 530 and 581 and 420 and 589
same,GTT blood glucose (Fig 1I),B6.hALOX12 mice; time 90,345 and 329 and 461 and 457 and 365 and 408
same,GTT blood glucose (Fig 1I),B6.hALOX12 mice; time 120,239 and 265 and 375 and 360 and 216 and 283
same,4-HNE immunostaining (oxidative stress marker) vs placebo,NOD.hALOX12 mice [1]; [7],reduced immunostaining
same,GPx1 levels in β cells,NOD.hALOX12 mice [1]; [7],increase
same,4-hne,NOD.hALOX12 mice [1]; [8],300.045 and 304.934 and 308.173 and 287.237 and 299.135
same,GPx1,NOD.hALOX12 mice [1]; [8],416.4 and 443.77 and 439.26 and 458.35
same,AUClast/D,[2]; dose-normalized,440 ± 54 ng·h/mL
same,AUC%extrap_obs,[2],0.115 ± 0.099%
same,AUC(0-inf),"[2]; mouse, plasma, po",13200 ng·h/mL
same,AUC(0-t),"[2]; mouse, plasma, po",13200 ng·h/mL
same,Cmax,"[2]; mouse, plasma, po",14300 ng/mL
same,half-life,"[2]; mouse, plasma, po",2.53 ± 0.41 h
same,MRT inf,"[2]; mouse, plasma, po, read-out: MRTinf_obs",3.81 ± 0.71 h
same,Cytotoxicity in human islets,human islets,without evidence of cytotoxicity
same,Effect on function of cytokine-treated human islets in vitro,human islets; proinflammatory cytokines,efficacy in reversing the insulin secretory defects; also recorded: protect human islets in vitro against dysfunction caused by proinflammatory cytokines
same,CD19,NOD.hALOX12 mice [3],0.1873 and -0.4029 and 0.4865 and 2.831 and -0.3159 and 0.2718 and 0.8536 and 0.6292 and 1.249 and 2.864
same,CD4+Foxp3+ regulatory T cells in pancreatic lymph nodes,NOD.hALOX12 mice [4]; [9],increase
same,Tregs in spleen,NOD.hALOX12 mice [4]; [9],no changes
same,CD4,NOD.hALOX12 mice [4]; sheet SFig 2C,65.7 and 58.8 and 61.4 and 58 and 54.2
same,FoxP3,NOD.hALOX12 mice [4]; sheet SFig 2C,4.31 and 7.46 and 5.24 and 7.28 and 5.6
same,IFNg,NOD.hALOX12 mice [4]; sheet SFig 2C,0.037 and 0.092 and 0.047 and 0.058 and 0.044
same,IL-17a,NOD.hALOX12 mice [4]; sheet SFig 2C,2.96 and 5.74 and 6.17 and 6.96 and 7.02
same,CD4,NOD.hALOX12 mice [4]; sheet SFig 2D,46.2 and 45.1 and 46.1 and 45.5 and 43.7
same,FoxP3,NOD.hALOX12 mice [4]; sheet SFig 2D,8.7 and 7.15 and 4.07 and 12.1 and 9.49
same,IFNg,NOD.hALOX12 mice [4]; sheet SFig 2D,0.36 and 0.33 and 0.39 and 0.29 and 0.4
same,IL-17a,NOD.hALOX12 mice [4]; sheet SFig 2D,3.2
same,"Islet cell death (TUNEL, H2A.X staining) vs vehicle",NOD.hALOX12 mice [5]; [7],decreased islet cell death
same,β cell proliferation (PCNA immunostaining) vs vehicle,NOD.hALOX12 mice [5]; [7],decreased β cell proliferation
same,H2Ax,NOD.hALOX12 mice [5]; [10],0.25 and 0.166 and 0 and 0.14
same,PCNA,NOD.hALOX12 mice [5]; [10],1.4 and 1.2 and 0.9 and 1.83
